What was measured:
Capivasertib = compound: C1CN(CCC1(C(=O)N[C@@H](CCO)C2=CC=C(C=C2)Cl)N)C3=NC=NC4=C3C=CN4 [Capivasertib]; conditions: max 10 µM
Outline: (§1)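 Cancer cell lines were seeded in 1536-well plates in 7.5 μl DMEM/F12 or RPMI with 10% FBS, held 24 hours at 37°C and 5% CO2, then dosed for 72 hours (final DMSO typically 0.2%). Viability was read by CellTiter-Glo 2.0 luminescence and scaled between blank-well and DMSO-well means. The single-agent IC50 comes from dose responses fitted to a two-parameter logistic curve with a non-linear mixed effects model.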

Trametinib = compound: CC(=O)Nc1cccc(-n2c(=O)n(C3CC3)c(=O)c3c(Nc4ccc(I)cc4F)n(C)c(=O)c(C)c32)c1 [Trametinib]; conditions: max 1 µM
Outline: as §1

Palbociclib = compound: CC(=O)c1c(C)c2cnc(Nc3ccc(N4CCNCC4)cn3)nc2n(C2CCCC2)c1=O [Palbociclib]; conditions: max 10 µM
Outline: as §1

AZD1390 = compound: CC(C)n1c(=O)n(C)c2cnc3cc(F)c(-c4ccc(OCCCN5CCCCC5)nc4)cc3c21 [AZD1390]; conditions: max 0.3 µM
Outline: as §1

Venetoclax = compound: CC1(C)CCC(CN2CCN(c3ccc(C(=O)NS(=O)(=O)c4ccc(NCC5CCOCC5)c([N+](=O)[O-])c4)c(Oc4cnc5[nH]ccc5c4)c3)CC2)=C(c2ccc(Cl)cc2)C1 [Venetoclax]; conditions: max 1 µM
Outline: as §1

Dasatinib = compound: CC1=C(C(=CC=C1)Cl)NC(=O)C2=CN=C(S2)NC3=CC(=NC(=N3)C)N4CCN(CC4)CCO [Dasatinib]; conditions: max 2 µM
Outline: as §1

SG3199 = compound: CC1=CN2[C@@H](C1)C=NC3=CC(=C(C=C3C2=O)OC)OCCCCCOC4=C(C=C5C(=C4)N=C[C@@H]6CC(=CN6C5=O)C)OC [SG3199]; conditions: max 0.001 µM
Outline: as §1

AZD2811 = compound: CCN(CCO)CCCOc1ccc2c(Nc3cc(CC(=O)Nc4cccc(F)c4)[nH]n3)ncnc2c1 [AZD2811]; conditions: max 1 µM
Outline: as §1

SN-38 = compound: CCc1c2c(nc3ccc(O)cc13)-c1cc3c(c(=O)n1C2)COC(=O)[C@]3(O)CC [SN-38]; conditions: max 0.3 µM
Outline: as §1

AZD0156 = compound: CN(C)CCCOc1ccc(-c2ccc3ncc4c(c3c2)n(C2CCOCC2)c(=O)n4C)cn1 [AZD0156]; conditions: max 3 µM
Outline: as §1

AZD4320 = compound: CN(CC[C@H](CSC1=CC=CC=C1)NC2=C(C=C(C=C2)S(=O)(=O)NC(=O)C3=CC=C(C=C3)N4CCC(CC4)[C@H](C5=CC=CC=C5C6=CC=C(C=C6)Cl)O)S(=O)(=O)C(F)(F)F)CCO [AZD4320]; conditions: max 1 µM
Outline: as §1

Alisertib = compound: COc1cc(Nc2ncc3c(n2)-c2ccc(Cl)cc2C(c2c(F)cccc2OC)=NC3)ccc1C(=O)O [Alisertib]; conditions: max 10 µM
Outline: as §1

Gefitinib = compound: COc1cc2ncnc(Nc3ccc(F)c(Cl)c3)c2cc1OCCCN1CCOCC1 [Gefitinib]; conditions: max 10 µM
Outline: as §1

Prexasertib = compound: COc1cccc(OCCCN)c1-c1cc(Nc2cnc(C#N)cn2)n[nH]1 [Prexasertib]; conditions: max 1 µM
Outline: as §1

Doxorubicin = compound: COc1cccc2c1C(=O)c1c(O)c3c(c(O)c1C2=O)C[C@@](O)(C(=O)CO)C[C@@H]3O[C@H]1C[C@H](N)[C@H](O)[C@H](C)O1 [Doxorubicin]; conditions: max 1 µM
Outline: as §1

AZD5153 = compound: COc1nnc2ccc(N3CCC(c4ccc(OCCN5CCN(C)C(=O)[C@H]5C)cc4)CC3)nn12 [AZD5153]; conditions: max 1 µM
Outline: as §1

Lapatinib = compound: CS(=O)(=O)CCNCc1ccc(-c2ccc3ncnc(Nc4ccc(OCc5cccc(F)c5)c(Cl)c4)c3c2)o1 [Lapatinib]; conditions: max 10 µM
Outline: as §1

AZD8186 = compound: C[C@@H](Nc1cc(F)cc(F)c1)c1cc(C(=O)N(C)C)cc2c(=O)cc(N3CCOCC3)oc12 [AZD8186]; conditions: max 3 µM
Outline: as §1

Crizotinib = compound: C[C@@H](Oc1cc(-c2cnn(C3CCNCC3)c2)cnc1N)c1c(Cl)ccc(F)c1Cl [Crizotinib]; conditions: max 10 µM
Outline: as §1

Savolitinib = compound: C[C@@H](c1ccc2nccn2c1)n1nnc2ncc(-c3cnn(C)c3)nc21 [Savolitinib]; conditions: max 1 µM
Outline: as §1

AZD6738 = compound: C[C@@H]1COCCN1C2=NC(=NC(=C2)C3(CC3)[S@](=N)(=O)C)C4=C5C=CNC5=NC=C4 [AZD6738]; conditions: max 10 µM
Outline: as §1

AZD5991 = compound: Cc1c2c(nn1C)CSCc1cc(n(C)n1)CSc1cc(c3ccccc3c1)OCCCc1c(C(=O)O)n(C)c3c-2c(Cl)ccc13 [AZD5991]; conditions: max 1 µM
Outline: as §1

AZD7648 = compound: Cc1cc2ncnn2cc1Nc1ncc2c(n1)n(C1CCOCC1)c(=O)n2C [AZD7648]; conditions: max 10 µM
Outline: as §1

Taselisib = compound: Cc1nc(-c2cn3c(n2)-c2ccc(-c4cnn(C(C)(C)C(N)=O)c4)cc2OCC3)n(C(C)C)n1 [Taselisib]; conditions: max 10 µM
Outline: as §1

Selumetinib = compound: Cn1cnc2c(F)c(Nc3ccc(Br)cc3Cl)c(C(=O)NOCCO)cc21 [Selumetinib]; conditions: max 10 µM
Outline: as §1

Olaparib = compound: O=C(c1cc(Cc2n[nH]c(=O)c3ccccc23)ccc1F)N1CCN(C(=O)C2CC2)CC1 [Olaparib]; conditions: max 10 µM
Outline: as §1

AZD1775 = compound: C=CCn1c(=O)c2cnc(Nc3ccc(N4CCN(C)CC4)cc3)nc2n1-c1cccc(C(C)(C)O)n1 [AZD1775]; conditions: max 3 µM
Outline: as §1

| Cell Line | IC50, cell viability 72 h (Capivasertib) [nM] | IC50, cell viability 72 h (Trametinib) [nM] | IC50, cell viability 72 h (Palbociclib) [nM] | IC50, cell viability 72 h (AZD1390) [nM] | IC50, cell viability 72 h (Venetoclax) [nM] | IC50, cell viability 72 h (Dasatinib) [nM] | IC50, cell viability 72 h (SG3199) [nM] | IC50, cell viability 72 h (AZD2811) [nM] | IC50, cell viability 72 h (SN-38) [nM] | IC50, cell viability 72 h (AZD0156) [nM] | IC50, cell viability 72 h (AZD4320) [nM] | IC50, cell viability 72 h (Alisertib) [nM] | IC50, cell viability 72 h (Gefitinib) [nM] | IC50, cell viability 72 h (Prexasertib) [nM] | IC50, cell viability 72 h (Doxorubicin) [nM] | IC50, cell viability 72 h (AZD5153) [nM] | IC50, cell viability 72 h (Lapatinib) [nM] | IC50, cell viability 72 h (AZD8186) [nM] | IC50, cell viability 72 h (Crizotinib) [nM] | IC50, cell viability 72 h (Savolitinib) [nM] | IC50, cell viability 72 h (AZD6738) [nM] | IC50, cell viability 72 h (AZD5991) [nM] | IC50, cell viability 72 h (AZD7648) [nM] | IC50, cell viability 72 h (Taselisib) [nM] | IC50, cell viability 72 h (Selumetinib) [nM] | IC50, cell viability 72 h (Olaparib) [nM] | IC50, cell viability 72 h (AZD1775) [nM] |
| --- | --- | --- | --- | --- | --- | --- | --- | --- | --- | --- | --- | --- | --- | --- | --- | --- | --- | --- | --- | --- | --- | --- | --- | --- | --- | --- | --- |
| NH-12 (Neuroblastoma) | > 10000 | 105 | > 10000 | > 300 | 576 | > 2000 | > 1 | 509 | 4.09 | > 3000 | 79.3 | 68.8 | > 10000 | 17.3 | 157 | 625 | > 10000 | > 3000 | 3020 | > 1000 | 2370 | > 1000 | > 10000 | 1250 | > 10000 | > 10000 | – |
| BT-20 (Breast Carcinoma) | 1210 | 202 | > 10000 | > 300 | > 1000 | > 2000 | > 1 | > 1000 | 57.7 | > 3000 | > 1000 | 9860 | > 10000 | 319 | > 1000 | > 1000 | > 10000 | > 3000 | > 10000 | > 1000 | > 10000 | > 1000 | > 10000 | 297 | > 10000 | > 10000 | 1440 |
| EMC-BAC-2 (Non-Small Cell Lung Carcinoma) | > 10000 | 198 | > 10000 | > 300 | > 1000 | 995 | > 1 | > 1000 | 169 | > 3000 | > 1000 | 5480 | > 10000 | > 1000 | 959 | 220 | > 10000 | > 3000 | > 10000 | > 1000 | > 10000 | 873 | > 10000 | 2320 | > 10000 | > 10000 | > 3000 |
| EBC-1 (Squamous Cell Lung Carcinoma) | > 10000 | 23.9 | > 10000 | > 300 | > 1000 | > 2000 | > 1 | > 1000 | 3.58 | > 3000 | 585 | > 10000 | > 10000 | 596 | > 1000 | 80.5 | > 10000 | > 3000 | 59 | 4.07 | > 10000 | > 1000 | > 10000 | 5250 | 1100 | > 10000 | 2940 |
| HuP-T3 (Pancreatic Carcinoma) | > 10000 | 567 | > 10000 | > 300 | > 1000 | 791 | > 1 | > 1000 | 235 | > 3000 | > 1000 | > 10000 | > 10000 | 166 | > 1000 | > 1000 | > 10000 | > 3000 | > 10000 | > 1000 | > 10000 | > 1000 | > 10000 | > 10000 | > 10000 | > 10000 | 1610 |
| BV-173 (Chronic Myelogenous Leukemia) | 4140 | 57.2 | 3940 | > 300 | 50.4 | < 2 | > 1 | 6.95 | 1.42 | > 3000 | 5.26 | 38.5 | > 10000 | 4.79 | 46.5 | 65.1 | 4020 | > 3000 | 497 | > 1000 | 260 | 30.6 | > 10000 | > 10000 | 2330 | 3250 | 294 |
| KP-2 (Pancreatic Carcinoma) | > 10000 | 778 | > 10000 | > 300 | > 1000 | > 2000 | > 1 | > 1000 | > 300 | > 3000 | 238 | > 10000 | > 10000 | 867 | > 1000 | > 1000 | > 10000 | > 3000 | > 10000 | > 1000 | > 10000 | > 1000 | > 10000 | > 10000 | 8020 | > 10000 | > 3000 |
| IMR-5 (Neuroblastoma) | > 10000 | > 1000 | 6630 | > 300 | > 1000 | > 2000 | > 1 | 18.2 | 1.9 | > 3000 | 546 | 18.3 | > 10000 | 13.6 | 64.9 | 69.6 | > 10000 | > 3000 | 2210 | > 1000 | 2190 | 107 | > 10000 | > 10000 | > 10000 | > 10000 | 498 |
